Experiment [1] deals with human venous whole blood (IFN-γ). The experiment in a line: Human whole blood IFN-γ assay. The class given is cell-based. The procedure:
Human venous whole blood (22.5 μL per well), obtained from healthy donors, was pre-treated with compounds for one hour at 37° C. in a humidified 95% air/5% CO2 incubator. The blood was stimulated with 2.5 μL anti-human CD3 and anti-CD28 mAb at a final concentration of 1 μg/mL each for 24 hours at 37° C. IFN-γ in the supernatants was measured using AlphLISA kit (Cat #AL217).

Experiment [2] has as its target T1, human DGKα (Homo sapiens (Human), UniProt P23743). The experiment in a line: DGKα ADPGLO assay (detergent/lipid micelle substrate). In kind it is biochemical. As to conditions: truncated DGK alpha; read-out: DGK alpha ADPGLO (Truncated) IC50. Here is the method: DGK Alpha ADPGLO (Truncated) IC50 (uM)
The detergent/lipid micelle was prepared by combining 15 g phosphatidylserine (Avanti 840035P) and 1 g diacylglycerol (8008110) and dissolving into 150 mL chloroform in a 2 L round bottom flask. Chloroform was removed under high vacuum by rotary evaporation. […] The lipid/detergent solution was split into 5 mL aliquots and stored at −80° C.
On the technique in general: ADP-Glo turns the ADP formed in a reaction into a luminescent signal.

In experiment [3] the target is T1, human DGKα. The experiment in a line: DGKα LIPGLO assay (extruded liposome substrate, ADP-Glo luminescence). In kind it is biochemical.
The next experiment deals with human DGKζ (Homo sapiens (Human), UniProt Q13574). Briefly: DGKζ LIPGLO assay (extruded liposome substrate, ADP-Glo luminescence). In kind it is biochemical.
The subject of a further experiment is whole blood (pERK). The experiment in a line: pERK Whole Blood assay (Table A; no whole-blood pERK method described). The class given is cell-based. The following applies: normalized.
[4] abbreviates: whole blood, normalized to 3 μM reference compound as 100% activation, read-out: IFN-γ Whole Blood Normalized EC50.
The mark [5] stands for this setting: liposome assay, read-out: DGK alpha LIPGLO IC50.
Where [6] appears, read: liposome assay, read-out: DGK zeta LIPGLO IC50.
Where [7] appears, read: Homo sapiens, whole blood, normalized to 3 μM reference compound as 100% activation, read-out: IFN-γ Whole Blood Normalized EC50.
The mark [8] stands for this setting: liposome (LIPGLO) assay, read-out: DGK alpha (liposome assay) IC50.
The mark [9] stands for this setting: liposome (LIPGLO) assay, read-out: DGK zeta (liposome assay) IC50.
The mark [10] stands for this setting: human whole blood, anti-CD3 plus anti-CD28 stimulation, 24 hours, read-out: IFN-γ Whole Blood EC50.

SMILES strings stand for the structures. pEC50, pIC50: −log10 of the molar value. Where two headings read alike, the source gives them in different places.

What is called pEC50 is the EC50 on a negative log10 scale, so that one unit is a factor of ten. By pIC50 is commonly meant −log10 of the IC50, conventionally taken in molar units.

T1 sequence (P23743 whole entry, looked up, the tested form may be a part): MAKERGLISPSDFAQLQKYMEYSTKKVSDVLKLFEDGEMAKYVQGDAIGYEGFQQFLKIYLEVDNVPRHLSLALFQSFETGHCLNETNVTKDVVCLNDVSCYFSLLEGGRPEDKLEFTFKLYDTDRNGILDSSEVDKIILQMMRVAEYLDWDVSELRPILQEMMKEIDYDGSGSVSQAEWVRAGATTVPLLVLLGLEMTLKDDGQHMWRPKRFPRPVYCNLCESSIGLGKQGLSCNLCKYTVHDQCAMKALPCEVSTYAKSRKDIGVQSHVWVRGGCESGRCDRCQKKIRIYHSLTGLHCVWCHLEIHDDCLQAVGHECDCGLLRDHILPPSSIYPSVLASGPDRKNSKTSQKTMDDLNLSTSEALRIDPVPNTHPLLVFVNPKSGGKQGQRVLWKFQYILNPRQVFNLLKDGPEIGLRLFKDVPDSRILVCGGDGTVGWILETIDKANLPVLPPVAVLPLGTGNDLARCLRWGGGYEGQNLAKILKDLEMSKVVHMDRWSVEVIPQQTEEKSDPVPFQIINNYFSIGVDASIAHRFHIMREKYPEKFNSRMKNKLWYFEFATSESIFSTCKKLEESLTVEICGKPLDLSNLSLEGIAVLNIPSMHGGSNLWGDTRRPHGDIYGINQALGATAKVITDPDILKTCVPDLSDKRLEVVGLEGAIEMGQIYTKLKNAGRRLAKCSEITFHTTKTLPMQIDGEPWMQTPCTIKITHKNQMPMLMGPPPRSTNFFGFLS
human DGKζ, sequence (Q13574 other isoform, or with tags, fused parts or gaps): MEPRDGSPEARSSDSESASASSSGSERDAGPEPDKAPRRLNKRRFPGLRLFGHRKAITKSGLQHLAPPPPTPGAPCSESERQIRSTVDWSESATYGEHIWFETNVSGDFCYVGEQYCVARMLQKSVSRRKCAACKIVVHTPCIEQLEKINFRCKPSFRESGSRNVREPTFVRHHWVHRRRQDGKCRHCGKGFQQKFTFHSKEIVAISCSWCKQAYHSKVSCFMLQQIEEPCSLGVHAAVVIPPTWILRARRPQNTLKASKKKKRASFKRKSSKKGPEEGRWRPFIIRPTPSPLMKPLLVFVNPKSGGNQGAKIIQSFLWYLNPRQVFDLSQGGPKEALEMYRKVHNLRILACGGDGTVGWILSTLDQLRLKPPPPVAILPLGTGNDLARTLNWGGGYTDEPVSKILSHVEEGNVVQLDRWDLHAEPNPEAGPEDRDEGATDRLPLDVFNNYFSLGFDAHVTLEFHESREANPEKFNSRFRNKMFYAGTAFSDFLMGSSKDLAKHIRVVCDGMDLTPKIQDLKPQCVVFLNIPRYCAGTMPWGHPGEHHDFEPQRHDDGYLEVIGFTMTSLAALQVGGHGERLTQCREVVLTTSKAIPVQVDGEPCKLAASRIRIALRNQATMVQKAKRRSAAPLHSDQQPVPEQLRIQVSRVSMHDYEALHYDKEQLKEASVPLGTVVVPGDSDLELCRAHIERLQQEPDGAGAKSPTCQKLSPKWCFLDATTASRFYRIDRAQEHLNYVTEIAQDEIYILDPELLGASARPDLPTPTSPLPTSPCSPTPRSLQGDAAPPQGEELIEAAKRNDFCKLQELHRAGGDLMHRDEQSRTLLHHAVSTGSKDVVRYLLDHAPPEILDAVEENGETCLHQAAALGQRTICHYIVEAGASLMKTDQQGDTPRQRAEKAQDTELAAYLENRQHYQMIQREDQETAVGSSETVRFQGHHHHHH

On to `CC[C@H]1CN(C(C)c2ccc(C(F)(F)F)cc2F)[C@H](CC)CN1c1nc(=O)n(C)c2ccc(C#N)nc12` (single isomer, unassigned) [Example 25], for which, in experiment [1] (setting [4]), the negative-log EC50 (pEC50) was 5.90. The results for the pIC50 at human DGKα [2], at human DGKα [3] (setting [5]) and on human DGKζ (setting [6]) were 6.48, 5.91 and 5.87, respectively.
Consider `CCC(c1ccc(OC(F)(F)F)cc1)N1C[C@H](CC)N(c2nc(=O)n(C)c3ccc(C#N)nc23)C[C@H]1CC` (single isomer, unassigned) [Example 37], for which the pEC50 in experiment [1] (setting [4]) was 4.70. For the same molecule, the figures for the pIC50 at human DGKα [2], at human DGKα [3] (setting [5]) and on human DGKζ (setting [6]) were 6.92, 7.16 and 6.33, respectively.
For the molecule `CC[C@@H]1CN(c2nc(=O)n(C)c3ccc(C#N)nc23)[C@@H](C)CN1C(c1ccc(F)cc1)c1cccc(C(F)(F)F)n1` (single isomer, unassigned) [Example 66], the pEC50 in experiment [1] (setting [4]) is 7.12. For the same molecule, the pIC50 was 8.70 at human DGKα [2], 6.64 at human DGKα [3] (setting [5]) and 6.96 at human DGKζ (setting [6]).
For `CCC(c1ccc(OC(F)(F)F)cc1F)N1C[C@H](C)N(c2nc(=O)n(C)c3ccc(C#N)nc23)C[C@H]1CC` (single isomer, unassigned) [Example 86] the same measures were 5.81, 6.38, 5.53 and 5.63.
With `CCC(c1ccc(C(F)(F)F)cc1)N1C[C@H](C)N(c2nc(=O)n(C)c3ccc(C#N)nc23)C[C@H]1CC` (single isomer, unassigned) [Example 90], the negative-log IC50 (pIC50) at human DGKα [2] was 6.85; at human DGKα [3] (setting [5]), 6.92; at human DGKζ (setting [6]), 6.23.
For `CC[C@H]1CN(C(c2ccc(F)cc2)c2ccc(C(F)(F)F)cn2)[C@H](C)CN1c1nc(=O)n(C)c2ccc(C#N)nc12` (stereo partly drawn) [Example 114, 4-((2S,5R)-2-ethyl-4-((4-fluorophenyl)(5-(trifluoromethyl)pyridin-2-yl)methyl)-5-methylpiperazin-1-yl)-1-methyl-2-oxo-1,2-dihydropyrido[3,2-d]pyrimidine-6-carbonitrile], the pEC50 in experiment [1] (setting [4]) is 6.33. The negative logarithm of the IC50 (pIC50) on human DGKα [3] (setting [5]) was 6.80; at human DGKζ (setting [6]) it was 6.36.
Take `CC[C@H]1CN(C(C)c2ccc(C(F)(F)F)cc2)[C@H](C)CN1c1nc(=O)n(C)c2ccc(C#N)nc12` (stereo partly drawn) [Example 116, 4-((2S,5R)-2-ethyl-5-methyl-4-(1-(4-(trifluoromethyl)phenyl)ethyl)piperazin-1-yl)-1-methyl-2-oxo-1,2-dihydropyrido[3,2-d]pyrimidine-6-carbonitrile]: the pEC50 in experiment [1] (setting [4]) was 5.84. The negative logarithm of the IC50 (pIC50) on human DGKα [3] (setting [5]) was 6.00; on human DGKζ (setting [6]) it was 5.68.
On to `CC[C@H]1CN(C(C)c2ccc(OC(F)(F)F)cc2)[C@H](C)CN1c1nc(=O)n(C)c2ccc(C#N)nc12` (stereo partly drawn) [Example 123, 4-((2S,5R)-2-ethyl-5-methyl-4-(1-(4-(trifluoromethoxy)phenyl)ethyl)piperazin-1-yl)-1-methyl-2-oxo-1,2-dihydropyrido[3,2-d]pyrimidine-6-carbonitrile], for which the pEC50 in experiment [1] (setting [7]) was 5.59. In addition, the negative logarithm of the IC50 (pIC50) at human DGKα [3] (setting [5]) was 5.86; on human DGKζ (setting [6]) it was 5.88.
For `Cc1ccc(C(c2ccc(C)cc2)N2C[C@H](C)N(c3nc(=O)n(C)c4ccc(C#N)nc34)C[C@H]2C)cc1` [Example 125] the same measures were 6.30, 6.13 and 6.00.
On to `C[C@@H]1CN(c2nc(=O)n(C)c3ccc(C#N)nc23)[C@@H](C)CN1Cc1cc(F)c(F)c(F)c1` [Example 130, 4-((2S,5R)-2,5-dimethyl-4-(3,4,5-trifluorobenzyl)piperazin-1-yl)-1-methyl-2-oxo-1,2-dihydropyrido[3,2-d]pyrimidine-6-carbonitrile], for which, in experiment [1] (setting [7]), the pEC50 is 5.39. Also, the values for the negative logarithm of the IC50 (pIC50) at human DGKα [3] (setting [5]) and at human DGKζ (setting [6]) were 4.91 and 6.02, respectively.
In the same order, the values of `C[C@@H]1CN(c2nc(=O)n(C)c3ccc(C#N)nc23)[C@@H](C)CN1Cc1ccc(F)c(F)c1` [Example 133, 4-((2 S,5R)-4-(3,4-difluorobenzyl)-2,5-dimethylpiperazin-1-yl)-1-methyl-2-oxo-1,2-dihydropyrido[3,2-d]pyrimidine-6-carbonitrile] are 6.15, 6.28 and 6.62.
In the same order, the values of `C[C@@H]1CN(c2nc(=O)n(C)c3ccc(C#N)nc23)[C@@H](C)CN1Cc1cc(F)c(F)cc1Cl` [Example 134, 4-((2S,5R)-4-(2-chloro-4,5-difluorobenzyl)-2,5-dimethylpiperazin-1-yl)-1-methyl-2-oxo-1,2-dihydropyrido[3,2-d]pyrimidine-6-carbonitrile] are 5.44, 5.37 and 6.11.
For `C[C@@H]1CN(c2nc(=O)n(C)c3ccc(C#N)nc23)[C@@H](C)CN1Cc1ccc2c(c1)OC(F)(F)O2` [Example 135, 4-((2S,5R)-4-((2,2-difluorobenzo[d][1,3]dioxol-5-yl)methyl)-2,5-dimethylpiperazin-1-yl)-1-methyl-2-oxo-1,2-dihydropyrido[3,2-d]pyrimidine-6-carbonitrile] the same measures were 4.97, 5.35 and 5.85.
For the molecule `C[C@@H]1CN(c2nc(=O)n(C)c3ccc(C#N)nc23)[C@@H](C)CN1Cc1ccc(F)cc1Cl` [Example 136, 4-((2S,5R)-4-(2-chloro-4-fluorobenzyl)-2,5-dimethylpiperazin-1-yl)-1-methyl-2-oxo-1,2-dihydropyrido[3,2-d]pyrimidine-6-carbonitrile], in experiment [1] (setting [7]), the pEC50 is 6.19. Further, the pIC50 was 6.04 at human DGKα [3] (setting [5]) and 6.66 on human DGKζ (setting [6]).
In the same order, the values of `CC(C)c1ccc(CN2C[C@H](C)N(c3nc(=O)n(C)c4ccc(C#N)nc34)C[C@H]2C)cc1` [Example 137, 4-((2S,5R)-4-(4-isopropylbenzyl)-2,5-dimethylpiperazin-1-yl)-1-methyl-2-oxo-1,2-dihydropyrido[3,2-d]pyrimidine-6-carbonitrile] are 5.58, 7.08 and 6.72.
With `CC[C@H]1CN(C(C)c2ccc(C(C)(C)C#N)cc2)[C@H](CC)CN1c1nc(=O)n(C)c2ccc(C#N)nc12` (stereo partly drawn) [Example 197, 4-((2S,5R)-4-(1-(4-(2-cyanopropan-2-yl)phenyl)ethyl)-2,5-diethylpiperazin-1-yl)-1-methyl-2-oxo-1,2-dihydropyrido[3,2-d]pyrimidine-6-carbonitrile], the pEC50 in experiment [1] (setting [4]) was 6.51. In addition, the values for the pIC50 on human DGKα [3] (setting [5]) and on human DGKζ (setting [6]) were 5.83 and 6.66, respectively.
In the case of `CC[C@H]1CN(C(c2ccc(OC(C)C)cc2)C(C)C)[C@H](CC)CN1c1nc(=O)n(C)c2ccc(C#N)nc12` (stereo partly drawn) [Example 262, 4-((2S,5R)-2,5-diethyl-4-(1-(4-isopropoxyphenyl)-2-methylpropyl)piperazin-1-yl)-1-methyl-2-oxo-1,2-dihydropyrido[3,2-d]pyrimidine-6-carbonitrile], the negative-log IC50 (pIC50) in the experiment with whole blood (pERK) is 5.38.
As to `C[C@@H]1CN(c2nc(=O)n(C)c3ccc(C#N)nc23)[C@@H](C)CN1C(c1ccc(Cl)cc1)c1ccc(Cl)cc1` [Example 373, 4-((2 S, 5R)-4-(bis(4-chlorophenyl)methyl)-2,5-dimethylpiperazin-1-yl)-1-methyl-2-oxo-1,2-dihydropyrido[3,2-d]pyrimidine-6-carbonitrile], the negative logarithm of the EC50 (pEC50) in experiment [1] (Homo sapiens, 24 h, human whole blood, anti-CD3 plus anti-CD28 stimulation, 24 hours, read-out: IFN-γ Whole Blood EC50) was 6.77. The pIC50 at human DGKα [3] (setting [8]) was 6.07; at human DGKζ (setting [9]) it was 5.59.
Regarding `C[C@@H]1CN(c2nc(=O)n(C)c3ccc(C#N)nc23)[C@@H](C)CN1C(c1ccc(F)cc1)c1ccc(C#N)cc1` (stereo partly drawn) [Example 375, 4-((2S,5R)-4-((4-cyanophenyl)(4-fluorophenyl)methyl)-2,5-dimethylpiperazin-1-yl)-1-methyl-2-oxo-1,2-dihydropyrido[3,2-d]pyrimidine-6-carbonitrile], in experiment [1] (setting [10]), the negative-log EC50 (pEC50) was 5.67. For the same molecule, the negative-log IC50 (pIC50) at human DGKα [3] (setting [8]) is 5.86; on human DGKζ (setting [9]), 5.22.
For `CC(c1ccc(OC(C)(C)C#N)cc1)N1C[C@H](C)N(c2nc(=O)n(C)c3ccc(C#N)nc23)C[C@H]1C` (stereo partly drawn) [Example 376, 4-((2S,5R)-4-(1-(4-((2-cyanopropan-2-yl)oxy)phenyl)ethyl)-2,5-dimethylpiperazin-1-yl)-1-methyl-2-oxo-1,2-dihydropyrido[3,2-d]pyrimidine-6-carbonitrile] the same measures were 7.24, 7.52 and 7.01.
For `CC(c1ccc(OC(C)(C)C#N)cc1)N1C[C@H](C)N(c2nc(=O)n(C)c3ccc(C#N)nc23)C[C@H]1C` (stereo partly drawn) [Example 377, 4-((2S,5R)-4-(1-(4-((2-cyanopropan-2-yl)oxy)phenyl)ethyl)-2,5-dimethylpiperazin-1-yl)-1-methyl-2-oxo-1,2-dihydropyrido[3,2-d]pyrimidine-6-carbonitrile] the same measures were 6.28, 6.62 and 6.43.

Values taken from patent US11584747B2, “Substituted pyridopyrimidinonyl compounds useful as T cell activators” (BRISTOL-MYERS SQUIBB COMPANY, priority 2019, dated 2023).
